What all share (type): cell-based
The subject of experiment [1] is SH-SY5Y (human neuroblastoma) cells. As to the kind of experiment: Cell viability, Cell Titer Glo 2.0 assay. To be noted: read-out: Viability SHSY5Y.3 GI50. The procedure, abridged:
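Following a 72 h incubation (37 °C, 5% CO2, 0.1% DMSO final), compound toxicity toward SH-SY5Y cells was quantified by CellTiter-Glo 2.0.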
Background: ATP-based viability assays read luminescence as a measure of living cells.

Experiment [2] has as its system MYB mRNA. As to the kind of experiment: Gene panel canonical junction qPCR assay, decrease in CJ mRNA, Table 3. The settings on record: decrease in CJ mRNA levels, canonical junction qPCR, gene panel. In outline:
(§1)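 Eleven-point dose responses from 10 uM final, 24 h, DMSO ≤0.25%, in A673 or K562 cells. Relative quantification by 2^(−ΔΔCt) against housekeeper and vehicle was converted to percent response over fixed ΔCt windows and fitted to yield IC50.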
In general terms: Quantitative PCR measures a nucleic acid by following its amplification.

Experiment [3] concerns HTT mRNA. The description is as above. The settings on record: decrease in CJ mRNA levels, canonical junction qPCR, gene panel. In outline:
as §1

The subject of experiment [4] is HTT mRNA. In words: Splicing RT-qPCR assay (THP), Table 2A. To be noted: Table 2A, THP; for AC50: HTT alternative junction (AJ) mRNA, read-out: HTT AJ (AC50, increase in alternative junction mRNA); for IC50: HTT canonical junction (CJ) mRNA, read-out: HTT CJ (IC50, decrease in canonical junction mRNA).
In experiment [5] the test system is MYB mRNA. In words: Splicing RT-qPCR assay (THP), Table 2A. To be noted: Table 2A, THP; for AC50: MYB alternative junction (AJ) mRNA, read-out: MYB AJ (AC50, increase in alternative junction mRNA); for IC50: MYB canonical junction (CJ) mRNA, read-out: MYB CJ (IC50, decrease in canonical junction mRNA).

15 molecules from patent US20260285853A1, “COMPOUNDS AND METHODS FOR MODULATING SPLICING” (REMIX THERAPEUTICS INC., priority 2023, published 2026) can be followed below.

Usually GI50 stands for the concentration at which growth is held to half of that of the control. The term IC50 denotes the point on the concentration scale where inhibition reaches its midpoint. By AC50 is commonly meant the concentration at which the activity in the assay is half-maximal. Take `COc1cc2c(N3CCC(NC4CC4)CC3)ccc(C(=O)Nc3cn4cc(C)nc(C)c4n3)n2n1` [Compound 633, 4-[4-(cyclopropyl-amino)-1-piperidyl]-N-(6,8-dimethyl-imidazo[1,2-a]pyrazin-2-yl)-2-methoxypyrazolo [1,5-a]-pyridine-7-carboxamide]: the GI50 in experiment [1] is above 10000 nM. The IC50 with MYB mRNA [2] was 100 to 1000 nM; in the experiment with HTT mRNA [3], above 10000 nM; with HTT mRNA [4] it was above 10000 nM; with MYB mRNA [5], 100 to 1000 nM. In addition, the results for the concentration at half-maximal activity (AC50) in the experiment on HTT mRNA [4] and with MYB mRNA [5] were above 10000 nM and 100 to 1000 nM, respectively.
For `COc1cc2c(N3CCC(NC4CC4)CC3)ccc(C(=O)Nc3cn4cc(C)nc4c(OC)n3)n2n1` [Compound 634, 4-[4-(cyclopropyl-amino)-1-piperidyl]-2-methoxy-N-(8-methoxy-2-methylimidazo[1,2-a]pyrazin-6-yl)-pyrazolo[1,5-a]pyridine-7-carboxamide], the GI50 in experiment [1] was in the range of 100 to 1000 nM. The IC50 with MYB mRNA [2], with HTT mRNA [3], in the experiment with HTT mRNA [4] and in the experiment with MYB mRNA [5] was below 100 nM in each case. Moreover, the AC50 in the experiment with HTT mRNA [4] and in the experiment with MYB mRNA [5] was below 100 nM in each case.
Regarding `Cc1cn2cc(NC(=O)c3ccc(N4CCC(NC5CC5)CC4)n4nc(C)nc34)cc(F)c2n1` [Compound 640, 5-[4-(cyclopropylamino)-1-piperidyl]-N-(8-fluoro-2-methyl-imidazo[1,2-a]pyridin-6-yl)-2-methyl-[1,2,4]-triazolo[1,5-a]-pyridine-8-carboxamide], the 50% growth inhibitory concentration (GI50) in experiment [1] is 100 to 1000 nM. Also, the concentration for half-maximal inhibition (IC50) was below 100 nM in the experiment on MYB mRNA [2], 100 to 1000 nM with HTT mRNA [3], 100 to 1000 nM with HTT mRNA [4] and below 100 nM in the experiment on MYB mRNA [5]. Also, the concentration at half-maximal activity (AC50) in the experiment with HTT mRNA [4] is 100 to 1000 nM; with MYB mRNA [5] it was below 100 nM.
Turning to `Cc1cn2cc(NC(=O)c3ccc(N4CCC(NC5CC5)CC4)n4nc(C)nc34)nc2c(C)n1` [Compound 641, 5-[4-(cyclopropylamino)-1-piperidyl]-N-(6,8-dimethylimidazo-[1,2-a]pyrazin-2-yl)-2-methyl-[1,2,4]-triazolo[1,5-a]pyridine-8-carboxamide], the GI50 in experiment [1] was in the range of 100 to 1000 nM. The IC50 in the experiment with MYB mRNA [2], with HTT mRNA [3], in the experiment with HTT mRNA [4] and in the experiment with MYB mRNA [5] was 100 to 1000 nM in each case. Besides, the AC50 in the experiment with HTT mRNA [4] and in the experiment on MYB mRNA [5] was 100 to 1000 nM each time.
On to `Cc1cn2cc(NC(=O)c3ccc(N4CCNCC4)c4c3OCO4)cc(F)c2n1` [Compound 642, N-(8-fluoro-2-methyl-imidazo[1,2-a]pyridin-6-yl)-7-piperazin-1-yl-1,3-benzodioxole-4-carboxamide], for which the 50% growth inhibitory concentration (GI50) in experiment [1] is 1000 to 10000 nM. Further, the IC50 in the experiment on MYB mRNA [2], in the experiment on HTT mRNA [3], in the experiment on HTT mRNA [4] and in the experiment on MYB mRNA [5] was 1000 to 10000 nM throughout. Besides, the AC50 in the experiment with HTT mRNA [4] and in the experiment on MYB mRNA [5] was 1000 to 10000 nM in each case.
Consider `Cc1cn2cc(NC(=O)c3ccc(N4C[C@@H](C)N[C@@H](C)C4)c4c3OCO4)cc(F)c2n1` [Compound 643, 7-[(3S,5R)-3,5-dimethylpiperazin-1-yl]-N-(8-fluoro-2-methyl-imidazo[1,2-a]pyridin-6-yl)-1,3-benzodioxole-4-carboxamide], for which the GI50 in experiment [1] fell in the range of 1000 to 10000 nM. Further, the IC50 lay within 100 to 1000 nM with MYB mRNA [2], 1000 to 10000 nM with HTT mRNA [3], 1000 to 10000 nM in the experiment with HTT mRNA [4] and 100 to 1000 nM with MYB mRNA [5]. The AC50 lay in the range of 1000 to 10000 nM in the experiment with HTT mRNA [4] and 100 to 1000 nM with MYB mRNA [5].
As for `Cc1cn2cc(NC(=O)c3ccc(N4CCC(NC5CC5)CC4)c4c3OCO4)cc(F)c2n1` [Compound 648, 7-[4-(cyclopropylamino)-1-piperidyl]-N-(8-fluoro-2-methyl-imidazo[1,2-a]pyridin-6-yl)-1,3-benzodioxole-4-carboxamide], in experiment [1], the concentration for 50% growth inhibition (GI50) was above 10000 nM. Further, the IC50 is 1000 to 10000 nM in the experiment with MYB mRNA [2], above 10000 nM with HTT mRNA [3], above 10000 nM in the experiment with HTT mRNA [4] and 1000 to 10000 nM in the experiment on MYB mRNA [5]. Moreover, the AC50 in the experiment on HTT mRNA [4] is above 10000 nM; with MYB mRNA [5] it was 1000 to 10000 nM.
As for `Cc1cn2cc(NC(=O)c3ccc(N4CCC(NC5CC5)C4)c4c3OCO4)cc(F)c2n1` (stereo not drawn) [Compound 649, 7-[3-(cyclopropylamino)-pyrrolidin-1-yl]-N-(8-fluoro-2-methyl-imidazo[1,2-a]pyridin-6-yl)-1,3-benzodioxole-4-carboxamide], the concentration for 50% growth inhibition (GI50) in experiment [1] lay in the range of 1000 to 10000 nM. Further, the IC50 was 1000 to 10000 nM in the experiment on MYB mRNA [2], above 10000 nM with HTT mRNA [3], above 10000 nM in the experiment on HTT mRNA [4] and 1000 to 10000 nM in the experiment on MYB mRNA [5]. Also, the AC50 in the experiment on HTT mRNA [4] is above 10000 nM; in the experiment on MYB mRNA [5], 100 to 1000 nM.
Turning to `COc1c(NC(=O)c2ccc(N3CCC(NC4CC4)CC3)c3c2OCO3)cn2cc(C)nc2c1F` [Compound 650, 7-[4-(cyclopropylamino)-1-piperidyl]-N-(8-fluoro-7-methoxy-2-methyl-imidazo[1,2-a]pyridin-6-yl)-1,3-benzodioxole-4-carboxamide], the GI50 in experiment [1] was 100 to 1000 nM. The half-maximal inhibitory concentration (IC50) with MYB mRNA [2], in the experiment on HTT mRNA [3], with HTT mRNA [4] and with MYB mRNA [5] was below 100 nM in each case. Besides, the concentration at half-maximal activity (AC50) with HTT mRNA [4] was 100 to 1000 nM; with MYB mRNA [5] it was below 100 nM.
Consider `Cc1cn2cc(NC(=O)c3ccc(N4C[C@@H](C)N[C@@H](C)C4)c4c3OC(F)(F)O4)cc(F)c2n1` [Compound 651, 7-[(3R,5S)-3,5-dimethylpiperazin-1-yl]-2,2-difluoro-N-(8-fluoro-2-methylimidazo[1,2-a]-pyridin-6-yl)-1,3-benzodioxole-4-carboxamide], for which the GI50 in experiment [1] was above 10000 nM. Moreover, the IC50 with MYB mRNA [2], with HTT mRNA [3], in the experiment with HTT mRNA [4] and with MYB mRNA [5] was above 10000 nM in each case. Further, the AC50 in the experiment with HTT mRNA [4] and with MYB mRNA [5] was above 10000 nM throughout.
For `Cc1cn2cc(NC(=O)c3ccc(N4C[C@@H](C)N[C@@H](C)C4)c4c3OC(C)(C)O4)cc(F)c2n1` [Compound 656, 7-[(3S,5R)-3,5-dimethylpiperazin-1-yl]-N-(8-fluoro-2-methyl-imidazo[1,2-a]-pyridin-6-yl)-2,2-dimethyl-1,3-benzodioxole-4-carboxamide], the concentration for 50% growth inhibition (GI50) in experiment [1] was above 10000 nM. Further, the IC50 in the experiment with MYB mRNA [2], with HTT mRNA [3], with HTT mRNA [4] and in the experiment with MYB mRNA [5] was above 10000 nM each time. The AC50 in the experiment with HTT mRNA [4] and in the experiment with MYB mRNA [5] was above 10000 nM in each case.
On to `COc1cc2nn(C)cc2cc1NC(=O)c1c(F)cc(N2CCC(NC3CC3)CC2)c2nc(C)sc12` [Compound 661, 4-[4-(cyclopropyl-amino)-1-piperidyl]-6-fluoro-N-(6-methoxy-2-methyl-indazol-5-yl)-2-methyl-1,3-benzothiazole-7-carboxamide], for which the GI50 in experiment [1] was in the range of 1000 to 10000 nM. The IC50 in the experiment on MYB mRNA [2], in the experiment with HTT mRNA [3], with HTT mRNA [4] and in the experiment on MYB mRNA [5] was 1000 to 10000 nM each time. Also, the AC50 in the experiment with HTT mRNA [4] and in the experiment on MYB mRNA [5] was 1000 to 10000 nM throughout.
With `Cc1cn2cc(NC(=O)c3c(F)cc(N4CCC(NC5CC5)CC4)c4nc(C)sc34)cc(F)c2n1` [Compound 662, 4-[4-(cyclopropyl-amino)-1-piperidyl]-6-fluoro-N-(8-fluoro-2-methyl-imidazo[1,2-a]pyridin-6-yl)-2-methyl-1,3-benzothiazole-7-carboxamide], in experiment [1], the GI50 is 1000 to 10000 nM. Also, the half-maximal inhibitory concentration (IC50) with MYB mRNA [2], in the experiment on HTT mRNA [3], in the experiment with HTT mRNA [4] and in the experiment on MYB mRNA [5] was above 10000 nM throughout. Besides, the AC50 with HTT mRNA [4] and in the experiment with MYB mRNA [5] was above 10000 nM in each case.
Take `COc1c(NC(=O)c2c(F)cc(N3CCC(NC4CC4)CC3)c3nc(C)sc23)cn2cc(C)nc2c1F` [Compound 663, 4-[4-(cyclopropylamino)-1-piperidyl]-6-fluoro-N-(8-fluoro-7-methoxy-2-methyl-imidazo[1,2-a]-pyridin-6-yl)-2-methyl-1,3-benzothiazole-7-carboxamide]: the GI50 in experiment [1] lay in the range of 1000 to 10000 nM. In addition, the IC50 in the experiment on MYB mRNA [2], in the experiment with HTT mRNA [3], in the experiment on HTT mRNA [4] and with MYB mRNA [5] was 1000 to 10000 nM each time. The AC50 in the experiment with HTT mRNA [4] and in the experiment on MYB mRNA [5] was 1000 to 10000 nM throughout.
As for `COc1nc(NC(=O)c2c(F)cc(N3CCC(NC4CC4)CC3)c3nc(C)sc23)cn2cc(C)nc12` [Compound 664, 4-[4-(cyclopropylamino)-1-piperidyl]-6-fluoro-N-(8-methoxy-2-methylimidazo-[1,2-a]pyrazin-6-yl)-2-methyl-1,3-benzothiazole-7-carboxamide], the GI50 in experiment [1] was in the range of 1000 to 10000 nM. For the same molecule, the IC50 in the experiment with MYB mRNA [2], in the experiment with HTT mRNA [3], with HTT mRNA [4] and with MYB mRNA [5] was 1000 to 10000 nM in each case. For the same molecule, the AC50 in the experiment on HTT mRNA [4] and with MYB mRNA [5] was 1000 to 10000 nM each time.
